Columns and labels:
db/db mice = assay: Insulin tolerance test; type: in vivo, mouse
Procedure: FIG. 5B. Insulin tolerance test (ITT). db/db mice with or without FTY720 treatment were fasted for 6 hours, and injected intraperitoneally with human regular insulin (0.55 U/kg) (Sigma), […] Open circle (∘), FTY720-untreated group; solid circle (●), FTY720-treated group. *p<0.05.
For the glucose tolerance test, the mice were fasted for 16 h and intraperitoneally injected with 10% glucose (1 mg/g of body weight). Glucose levels were then measured after 0, 30, 60, 90, and 120 min by a Glucometer Elite (Bayer Corp., Elkhart, Ind.) (29). For the insulin tolerance test, the mice were fasted for 6 h and injected intraperitoneally with human regular insulin (0.55 units/kg) (Sigma). […]

[1] = system: isolated pancreatic islets; assay: Glucose-stimulated insulin secretion by isolated normal islets ex vivo; type: cell-based, mouse; conditions: islets from 8 weeks old normal C57/BL6 mice, 0.2 μM FTY720, 24 hours
Procedure: Islets were isolated from 8 weeks old normal C57/BL6 mice and treated with or without 0.2 μM FTY720 in the culture medium without FBA for 24 hours. Then the islets were stimulated with glucose and secreted insulin was measured using an Ultra Sensitive Mouse Insulin ELISA Kit (Crystal Chem Inc., Downers Grove, Ill.) and total proteins of islets were measured.

pancreatic islets = assay: Islet morphology (HE and insulin immunostaining) and islet area quantification in pancreas; type: in vivo, mouse
Excerpt: FIG. 7. Hematoxylin and eosin (HE) staining of pancreas from the FTY720-untreated and the treated mice. After 6 and 9 weeks of treatment, pancreases were removed from the db/db mice and embedded in paraffin. Paraffin sections (10 μm thick) were stained with HE and analyzed with a microscope (Scale bar, 50 μm).
FIG. 8. Insulin immunostaining (green fluorescence) of the pancreatic islets. After 6 and 9 weeks treatment of FTY720, pancreases were removed from the db/db mice and embedded in paraffin. Paraffin sections (10 μm thick) were immunostained fluorescently for insulin (green color) (Scale bar 50 μm).
FIG. 9. Stereological quantification of the islet areas in the FTY720-untreated and the FTY720-treated db/db mice. […]
To assess islet area in pancreas after 6 weeks of treatment with FTY720, six consecutive paraffin sections (10 μm) from a pancreas (10 pancreases for the control and 9 pancreases for the FTY720-treated group) were used. All islet images on a whole section were taken by a Axioplan 2 microscope at X10 magnification, each islet area was measured by the Java-based image-processing program ImageJ (National Institutes of Health, Bethesda, Md.), and the sum of all islet areas from a section was considered to be the islet area per pancreas.

Bcl-2 = Bcl-2 mRNA levels in islets of db/db mice; type: in vivo, mouse; conditions: islets from FTY720-treated db/db mice vs untreated
Procedure: FIG. 10A. Levels of Bcl-2 mRNA levels of the db/db mice with (+FTY720) or without FTY720 (−FTY720) treatment. *p=0.0006
Islets were isolated from pancreases removed from the 13-week-old untreated and FTY720-treated db/db mice by Liberase (Roche Diagnostics) digestion, followed by discontinuous Ficoll gradient separation and manual stereomicroscopic selection to exclude contaminating tissues (30). Isolated islets (or INS-1 cells) were cultured in the medium (composed of RPMI 1640 medium supplemented with 10% fetal bovine serum, 2 mM L-glutamine, 1% sodium pyruvate, 50 μM β-mercaptoethanol, 100 units/ml of penicillin, and 100 μg/ml of streptomycin). For treatment of INS-1 cells, the cells were plated in RPMI medium overnight and changed to Hanks' balanced salt solution containing 2 mM glucose and 0.5% FBS overnight. Then the cells were treated with various conditions in the same medium for 24 hours.
To determine the mechanism of action (MOA) behind the increase in beta-cell mass observed in the treated mice, beta-cell survival was examined.

S1P3 = assay: S1P receptor expression in islets from db/db mice: S1P3; type: in vivo, mouse; conditions: after FTY720 treatment of db/db mice
Excerpt: FIG. 15. Expression of 4 FTY720-bound S1P receptors in the islets isolated from the db/db mice.
FTY720 is phosphorylated in vivo to form FTY720-P that binds S1P1, S1P3, S1P4, and S1P5 but not S1P2 (25). We determined the expression of these receptors in the islets isolated from the untreated and FTY720-treated db/db mice.

pancreatic cancer cells = conditions: concentrations identical to this study (10 mg/kg), reportedly; cited from earlier work

S1P3 expression in islets (S1P3): significantly elevated
Compound: CCCCCCCCc1ccc(CCC(N)(CO)CO)cc1 [FTY720, 2-amino-2-[2-(4-octylphenyl)ethyl]propane-1,3-diol]
glucose levels in treated vs untreated groups after insulin administration (db/db mice; after 70 min in insulin tolerance test): similar
insulin sensitivity (db/db mice; db/db mice fasted 6 h, i.p. human regular insulin 0.55 U/kg): not affected
glucose-stimulated insulin secretion [1]: does not affect
pancreatic islet size (stereological quantification of islet areas) (pancreatic islets; db/db mice after 6 weeks of treatment, vs untreated group): significantly larger
islet morphology (pancreatic islets; db/db mice, H&E and insulin immunostaining, after 6 and 9 weeks of treatment): normal islet morphology
Bcl-2 mRNA levels (Bcl-2): significantly increased
growth, migration, and invasion of pancreatic cancer cells (pancreatic cancer cells): inhibit
